± gives the expanded uncertainty stated by the source.
Settings: Liquid, Vibrating tube method

CCCCCCCCCCCC(=O)OCC [ethyl dodecanoate]
mass density [kg/m3]
Settings | 283.15 K | 293.15 K | 303.15 K | 313.15 K | 323.15 K | 333.15 K | 343.15 K | 353.15 K | 363.15 K
100 kPa | 869.69 ± 0.9 | 862.5 ± 0.89 | 854.28 ± 0.88 | 846.91 ± 0.87 | 838.9 ± 0.87 | 831.05 ± 0.86 | 823.11 ± 0.85 | 815.47 ± 0.84 | 807.52 ± 0.84
1000 kPa | 870.36 ± 0.9 | 863 ± 0.89 | 855.02 ± 0.88 | 847.32 ± 0.88 | 839.64 ± 0.87 | 831.72 ± 0.86 | 824.13 ± 0.85 | 816.33 ± 0.85 | 808.53 ± 0.84
3000 kPa | 871.92 ± 0.9 | 864.24 ± 0.89 | 856.39 ± 0.89 | 848.68 ± 0.88 | 841.1 ± 0.87 | 833.53 ± 0.87 | 825.84 ± 0.86 | 818.26 ± 0.85 | 810.45 ± 0.84
5000 kPa | 872.91 ± 0.9 | 865.2 ± 0.9 | 857.69 ± 0.89 | 850.07 ± 0.88 | 842.59 ± 0.88 | 835.15 ± 0.87 | 827.55 ± 0.86 | 819.99 ± 0.86 | 812.32 ± 0.85
10000 kPa | 876.08 ± 0.91 | 868.58 ± 0.91 | 860.98 ± 0.9 | 853.51 ± 0.89 | 846.29 ± 0.89 | 838.84 ± 0.88 | 831.53 ± 0.88 | 824.24 ± 0.87 | 816.46 ± 0.86
15000 kPa | 878.96 ± 0.92 | 871.64 ± 0.92 | 864.33 ± 0.91 | 856.86 ± 0.9 | 849.77 ± 0.9 | 842.47 ± 0.89 | 835.33 ± 0.89 | 828.35 ± 0.88 | 821.01 ± 0.88
20000 kPa | 881.89 ± 0.93 | 874.58 ± 0.92 | 867.23 ± 0.92 | 860.1 ± 0.91 | 853.3 ± 0.91 | 846.07 ± 0.91 | 839.18 ± 0.9 | 832.01 ± 0.9 | 824.82 ± 0.89
25000 kPa | 884.58 ± 0.94 | 877.55 ± 0.93 | 870.25 ± 0.93 | 863.29 ± 0.93 | 856.35 ± 0.92 | 849.47 ± 0.92 | 842.57 ± 0.91 | 835.81 ± 0.91 | 828.56 ± 0.91
30000 kPa | 887.29 ± 0.95 | 880.26 ± 0.94 | 873.21 ± 0.94 | 866.24 ± 0.94 | 859.5 ± 0.93 | 852.73 ± 0.93 | 846.08 ± 0.93 | 839.36 ± 0.92 | 832.36 ± 0.92
35000 kPa | 890.05 ± 0.96 | 882.89 ± 0.95 | 876.08 ± 0.95 | 869.1 ± 0.95 | 862.45 ± 0.94 | 855.75 ± 0.94 | 849.44 ± 0.94 | 842.72 ± 0.94 | 835.98 ± 0.93
40000 kPa | 892.47 ± 0.96 | 885.52 ± 0.96 | 878.71 ± 0.96 | 871.83 ± 0.96 | 865.48 ± 0.95 | 859.06 ± 0.95 | 852.46 ± 0.95 | 846.01 ± 0.95 | 839.55 ± 0.95
50000 kPa | 897.22 ± 0.98 | 890.85 ± 0.98 | 883.88 ± 0.98 | 877.43 ± 0.98 | 871.16 ± 0.98 | 864.9 ± 0.98 | 858.61 ± 0.98 | 852.29 ± 0.98 | 845.99 ± 0.98
60000 kPa | 901.93 ± 0.99 | 895.29 ± 0.99 | 888.85 ± 0.99 | 882.35 ± 1 | 876.11 ± 1 | 870.44 ± 1 | 864.08 ± 1 | 858.27 ± 1 | 852.14 ± 1

From the NIST ThermoML archive (doi:10.1016/j.jct.2016.08.027)
